# Assay results taken from PubChem BioAssay (NCI).
#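 Test compounds were applied to cells in 96-well plates for 48 hours at 5 doses. TGI is the concentration that stops growth completely.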
# What was measured:
# Test in all cases: NCI-60 cell line screen, 48 h
# [1] = tested on: HL-60(TB) leukemia
# [2] = tested on: ACHN renal
# [3] = tested on: K-562 leukemia
# [4] = tested on: OVCAR-3 ovarian
# [5] = tested on: RPMI-8226 leukemia
# [6] = tested on: CAKI-1 renal
# [7] = tested on: OVCAR-5 ovarian
# [8] = tested on: UACC-257 melanoma
# [9] = tested on: MOLT-4 leukemia
# [10] = tested on: PC-3 prostate
# [11] = tested on: TK-10 renal
# [12] = tested on: NCI-H23 lung
# [13] = tested on: HCT-15 colon
# [14] = tested on: SR leukemia
# [15] = tested on: LOX IMVI melanoma
# [16] = tested on: MALME-3M melanoma
# [17] = tested on: EKVX NSCLC
# [18] = tested on: SK-MEL-5 melanoma
# [19] = tested on: UO-31 renal
# [20] = tested on: M14 melanoma
# [21] = tested on: A549 NSCLC
# [22] = tested on: HOP-62 NSCLC
# [23] = tested on: HCC-2998 colon
# [24] = tested on: CCRF-CEM leukemia
# [25] = tested on: COLO 205 colon
# [26] = tested on: HT29 colon
# [27] = tested on: 786-0 renal
# [28] = tested on: OVCAR-8 ovarian
# [29] = tested on: KM12 colon
# [30] = tested on: SNB-19 CNS
# [31] = tested on: NCI/ADR-RES ovarian
# [32] = tested on: SN12C renal
# [33] = tested on: SK-MEL-28 melanoma
# [34] = tested on: U251 CNS
# [35] = tested on: HCT-116 colon
# [36] = tested on: BT-549 breast
# [37] = tested on: MDA-N
# [38] = tested on: MCF7 breast
# [39] = tested on: MDA-MB-435
# [40] = tested on: SF-295 CNS
# [41] = tested on: NCI-H460 lung
# [42] = tested on: SK-MEL-2 melanoma
# [43] = tested on: OVCAR-4 ovarian
# [44] = tested on: DU-145 prostate
# [45] = tested on: UACC-62 melanoma
# [46] = tested on: HOP-92 NSCLC
# [47] = tested on: SW-620 colon
# [48] = tested on: T-47D breast
# [49] = tested on: MDA-MB-231 breast
# [50] = tested on: SK-OV-3 ovarian
# [51] = tested on: NCI-H522 lung
# [52] = tested on: SF-539 CNS
# [53] = tested on: SNB-75 CNS
# [54] = tested on: IGROV1 ovarian
# [55] = tested on: A498 renal
# [56] = tested on: NCI-H226 lung
# [57] = tested on: RXF 393 renal
# [58] = tested on: HS 578T breast
# [59] = tested on: SF-268 CNS
compound,measurement,setting,value
O=C(c1ccc2ccccc2c1)C1S(=O)(=O)OCCOS1(=O)=O,TGI,[1],> 100 µM
same,TGI,[2],> 100 µM
same,TGI,[3],> 100 µM
same,TGI,[4],> 100 µM
same,TGI,[5],> 100 µM
same,TGI,[6],> 100 µM
same,TGI,[7],> 100 µM
same,TGI,[8],> 100 µM
same,TGI,[9],> 100 µM
same,TGI,[10],> 100 µM
same,TGI,[11],> 100 µM
same,TGI,[12],> 100 µM
same,TGI,[13],> 100 µM
same,TGI,[14],> 100 µM
same,TGI,[15],> 100 µM
same,TGI,[16],> 100 µM
same,TGI,[17],> 100 µM
same,TGI,[18],> 100 µM
same,TGI,[19],> 100 µM
same,TGI,[20],> 100 µM
same,TGI,[21],> 100 µM
same,TGI,[22],> 100 µM
same,TGI,[23],> 100 µM
same,TGI,[24],> 100 µM
same,TGI,[25],> 100 µM
same,TGI,[26],> 100 µM
same,TGI,[27],> 100 µM
same,TGI,[28],> 100 µM
same,TGI,[29],> 100 µM
same,TGI,[30],> 100 µM
same,TGI,[31],> 100 µM
same,TGI,[32],> 100 µM
same,TGI,[33],> 100 µM
same,TGI,[34],> 100 µM
same,TGI,[35],> 100 µM
same,TGI,[36],> 100 µM
same,TGI,[37],> 100 µM
same,TGI,[38],> 100 µM
same,TGI,[39],> 100 µM
same,TGI,[40],> 100 µM
same,TGI,[41],> 100 µM
same,TGI,[42],> 100 µM
same,TGI,[43],> 100 µM
same,TGI,[44],> 100 µM
S=C(N/N=C\C=N/NC(=S)N1CCCCCC1)N1CCCCCC1,TGI,[2],> 100 µM
same,TGI,[3],> 100 µM
same,TGI,[45],> 100 µM
same,TGI,[46],> 100 µM
same,TGI,[4],> 100 µM
same,TGI,[5],> 100 µM
same,TGI,[47],> 100 µM
same,TGI,[6],> 100 µM
same,TGI,[7],> 100 µM
same,TGI,[8],> 100 µM
same,TGI,[48],21.8 µM
same,TGI,[9],> 100 µM
same,TGI,[10],> 100 µM
same,TGI,[11],> 100 µM
same,TGI,[12],> 100 µM
same,TGI,[49],> 100 µM
same,TGI,[13],> 100 µM
same,TGI,[15],> 100 µM
same,TGI,[50],> 100 µM
same,TGI,[16],> 93.7 µM
same,TGI,[17],> 100 µM
same,TGI,[51],> 100 µM
same,TGI,[52],> 100 µM
same,TGI,[18],> 100 µM
same,TGI,[19],> 100 µM
same,TGI,[20],> 100 µM
same,TGI,[21],> 100 µM
same,TGI,[53],> 100 µM
same,TGI,[22],> 60.9 µM
same,TGI,[23],> 100 µM
same,TGI,[25],> 100 µM
same,TGI,[26],> 100 µM
same,TGI,[27],> 100 µM
same,TGI,[54],> 100 µM
same,TGI,[28],> 100 µM
same,TGI,[29],> 100 µM
same,TGI,[30],> 100 µM
same,TGI,[55],> 100 µM
same,TGI,[31],> 85.9 µM
same,TGI,[32],> 100 µM
same,TGI,[56],> 100 µM
same,TGI,[33],> 100 µM
same,TGI,[34],> 100 µM
same,TGI,[35],> 100 µM
same,TGI,[57],90.9 µM
same,TGI,[36],> 100 µM
same,TGI,[37],> 100 µM
same,TGI,[38],> 100 µM
same,TGI,[58],> 100 µM
same,TGI,[39],> 100 µM
same,TGI,[40],> 100 µM
same,TGI,[41],> 100 µM
same,TGI,[42],> 100 µM
same,TGI,[59],> 100 µM
same,TGI,[44],> 86.2 µM
